One experiment concerns MCF7 cells. Put plainly: Annexin V-FITC/PI cell death quantification in MCF7. Type of experiment: cell-based, human. As to conditions: 38 600 nM, 42 50 nM, 45 400 nM; for Annexin V-FITC/PI 72 h LA (late apoptosis) / Annexin V-FITC/PI 72 h Necrosis / Annexin V-FITC/PI 72 h EA (early apoptosis) / Annexin V-FITC/PI 72 h Live / Annexin V-FITC/PI 6 Days LA (late apoptosis) / Annexin V-FITC/PI 6 Days Necrosis / Annexin V-FITC/PI 6 Days EA (early apoptosis) / Annexin V-FITC/PI 6 Days Live: CA-4 50 nM; for Annexin V-FITC/PI 6 Days LA (late apoptosis) / Annexin V-FITC/PI 6 Days Necrosis / Annexin V-FITC/PI 6 Days EA (early apoptosis) / Annexin V-FITC/PI 6 Days Live: MCF7, 6 days. The procedure: (§1) To determine whether the cytotoxic/antiproliferative effect of the MDS was due to apoptosis induction, cells were treated with variable concentrations of the drug for 72 h or 6 days, stained with Annexin V-FITC (AnV) and propidium iodide (PI), and analyzed by flow cytometry. Double negative cells (AnV^−/PI^−) were classified as live cells (L), cells positive for AnV and negative for PI (AnV^+/PI^−) were considered in Early Apoptosis (EA), cells negative for AnV and positive for PI (AnV^−/PI^+) were considered necrotic (N), and double-positive cells (AnV^+/PI^+) as Late Apoptosis (LA). In all cases, the compounds were used at the same concentrations previously used in cell cycle studies (Table 5).
(§2) MCF7, SKOV-3, and HeLa apoptotic cells were quantified using an Annexin V-FITC/PI apoptosis detection kit (Immunostep, Salamanca, Spain) according to the manufacturer’s guidelines. 1.5 mL/well of cells in the exponential growth phase at 2·10^4 cells/mL were seeded onto 12-well plates and left to attach overnight. After 24 h incubation, cells were treated with selected compounds. After 72 h (MCF7, SKOV-3, and HeLa) and 6 days (MCF7) post-treatment, attached and floating cells of treated and untreated wells were collected, centrifuged, resuspended in Annexin V binding buffer, and stained with Annexin V-FITC/PI. Cells were then incubated in darkness at room temperature for 15 min and a total of 30,000 cells were acquired and analyzed using the BD Accuri™ C6 Plus Flow Cytometer and Software (version 1.0.264.21, BD Biosciences, San José, CA, USA), respectively. Compounds were dissolved in DMSO and the final solvent concentration never exceeded 0.5% (v/v). Control wells included cells with 0.5% (v/v) DMSO.

Experiment [1] concerns A2780 ovarian carcinoma cells. The experiment in a line: Antiproliferative activity against A2780 (MTT). Type of experiment: cell-based. As to conditions: Homo sapiens, 72 h. The procedure:
The in vitro antiproliferative activity of compounds 38, 42, and 45 against a panel of five human ovarian carcinoma cell lines (SKOV3, IGROV-1, A2780, OVCAR-8, and OVCAR-3) was evaluated by a colorimetric method (Table 3) and compared with paclitaxel. […] For SKOV3, the potency reduction observed for paclitaxel together with a sustained or improved (42 with a 7 nM IC50 value) potency for MDS results in a more favorable profile of the MDS compared to paclitaxel.
MCF7 (human breast carcinoma), SKOV-3 (human ovarian carcinoma), OVCAR-3 (human ovarian carcinoma), OVCAR-8 (human ovarian carcinoma), and HeLa (human cervical carcinoma) cell lines were cultured in Dulbecco’s Modified Eagle’s Medium (DMEM) (Gibco, Thermo Fischer Scientific) containing 10% (v/v) heat-inactivated fetal bovine serum (HIFBS) (Lonza-Cambrex, Karlskoga, Sweden), 2 mM L-glutamine (Lonza-Cambrex, Karlskoga, Sweden), 100 μg/mL streptomycin, and 100 IU/mL penicillin (Lonza-Cambrex) at 37 °C in humidified 95% air and 5% CO2. […]
MCF7, HeLa, and HT-29 cell proliferation, when treated with the corresponding compounds, were determined using the XTT (sodium 3’-[1(phenylaminocarbonyl)-3,4-tetrazolium]-bis(4-methoxy-6-nitro)-benzenesulfonic acid hydrate) cell proliferation kit (Roche Molecular Biochemicals, Mannheim, Germany). […] The absorbance of the formazan product generated was measured at 450 nm using a multi-well plate reader. SKOV-3, OVCAR-3, OVCAR-8, IGROV-1, A-2780 cell proliferation, when treated with the corresponding compound, were determined using MTT (3-(4,5-dimethylthiazol-2-yl)-2,5-diphenyl-2H-tetrazolium bromide) (Sigma-Aldrich, St. Louis, MO, USA). […] Absorbance was measured at 570 nm in a plate reader (Ultra Evolution, Tecan, Männedorf, Suiza). […] After 24 h incubation, to allow cells to attach to the plates, all compounds were added at 1 µM concentration and the effect on the proliferation was evaluated 72 h post-treatment. […]

The subject of a further experiment is SKOV3 cells. The experiment in a line: Annexin V-FITC/PI cell death quantification in SKOV3. Type of experiment: cell-based, human. As to conditions: SKOV3, 72 h; 38 600 nM, 42 50 nM, 45 400 nM, paclitaxel 10 nM. The procedure: as §1, §2
The subject of a further experiment is HeLa cells. Put plainly: Annexin V-FITC/PI cell death quantification in HeLa. Type of experiment: cell-based, human. The note with it: 38 600 nM, 42 50 nM, 45 400 nM. The procedure:
as §1, §2

Several values for one entry are separate records, joined by “and”; a condition that tells them apart may be missing. Identical values can stand only once.

Turning to `COc1ccc(/C=C\c2cc(OC)c(OC)c(OC)c2)cc1O` [Combretastatin A-4, reference compound], in the experiment on MCF7 cells (MCF7, 72 h), the “Annexin V-FITC/PI 72 h LA (late apoptosis)” value is listed as 3.3% and the “Annexin V-FITC/PI 72 h Necrosis” value came out at 6.7%. For the same compound, in the experiment with MCF7 cells (MCF7, 72 h, listed as CA-4), the “Annexin V-FITC/PI 72 h EA (early apoptosis)” value (from here on “Annexin V-FITC/PI 72 h EA”) was 32% and 31.7%; the “Annexin V-FITC/PI 72 h Live” value is 58% and 58.3%. In the experiment on MCF7 cells, the “Annexin V-FITC/PI 6 Days LA (late apoptosis)” value (“Annexin V-FITC/PI 6 Days LA” for short) is listed as 2.7% and the “Annexin V-FITC/PI 6 Days Necrosis” value was found to be 0.4%. Moreover, in the experiment on MCF7 cells (listed as CA-4), the “Annexin V-FITC/PI 6 Days EA (early apoptosis)” value (“Annexin V-FITC/PI 6 Days EA” below) came out at 52.4% and the “Annexin V-FITC/PI 6 Days Live” value turned out to be 44.5%.

What is called IC50 is the concentration that gives 50% inhibition. Low values mean greater potency, high ones weaker potency. Take `COc1ccc(S(=O)(=O)N(Cc2ccccc2)c2cc(OC)c(OC)c(OC)c2)cc1N` [Compound 45]: in experiment [1], the IC50 was determined as 0.104 µM. Moreover, in the experiment on MCF7 cells (MCF7, 72 h), the “Annexin V-FITC/PI 72 h EA” value is 20% and 20.1%; the “Annexin V-FITC/PI 72 h LA (late apoptosis)” value came out at 7.5%; the “Annexin V-FITC/PI 72 h Live” value is 71% and 70.5%; the “Annexin V-FITC/PI 72 h Necrosis” value is listed as 1.9%. In the experiment with MCF7 cells, the “Annexin V-FITC/PI 6 Days EA” value came out at 39.3%, the “Annexin V-FITC/PI 6 Days LA” value is 3.8%, the “Annexin V-FITC/PI 6 Days Live” value is on record as 56.7% and the “Annexin V-FITC/PI 6 Days Necrosis” value worked out at 0.3%. In addition, in the experiment on SKOV3 cells, the “Annexin V-FITC/PI 72 h EA” value was 23% and 23.4%; the “Annexin V-FITC/PI 72 h LA (late apoptosis)” value was found to be 2.6%; the “Annexin V-FITC/PI 72 h Live” value amounted to 72.7%; the “Annexin V-FITC/PI 72 h Necrosis” value is listed as 1.3%. In the experiment with HeLa cells, the “Annexin V-FITC/PI 72 h EA” value is listed as 1.5%; the “Annexin V-FITC/PI 72 h LA (late apoptosis, double-positives)” value was 84.9%; the “Annexin V-FITC/PI 72 h Necrosis” value turned out to be 12.7%.

In experiment [1], `COc1ccc(S(=O)(=O)N(C)c2cc(OC)c(OC)c(OC)c2)cc1N` [Compound 42] showed an IC50 of 0.042 µM. Also, in the experiment with MCF7 cells (MCF7, 72 h), the “Phosphatidylserine exposure (Annexin V-positive MCF7 cells)” value came out at 11%; the “Annexin V-FITC/PI 72 h EA” value was 9% and 8.5%; the “Annexin V-FITC/PI 72 h LA (late apoptosis)” value came out at 2.3%; the “Annexin V-FITC/PI 72 h Live” value is 88% and 87.7%. Besides, the “Annexin V-FITC/PI 72 h Necrosis” value with MCF7 cells (MCF7, 72 h) is recorded as 1.4%. Also, in the experiment with MCF7 cells, the “Annexin V-FITC/PI 6 Days EA” value was 19% and 18.9%; the “Annexin V-FITC/PI 6 Days LA” value turned out to be 1.7%; the “Annexin V-FITC/PI 6 Days Live” value was 79% and 79.1%; the “Annexin V-FITC/PI 6 Days Necrosis” value is given as 0.3%. Also, in the experiment with SKOV3 cells, the “Annexin V-FITC/PI 72 h EA” value is reported as 12.2%, the “Annexin V-FITC/PI 72 h LA (late apoptosis)” value is reported as 2.0%, the “Annexin V-FITC/PI 72 h Live” value was determined as 85.1% and the “Annexin V-FITC/PI 72 h Necrosis” value stood at 0.7%. Besides, in the experiment on HeLa cells, the “Annexin V-FITC/PI 72 h EA” value is listed as 1.4%; the “Annexin V-FITC/PI 72 h LA (late apoptosis, double-positives)” value was found to be 82.0%; the “Annexin V-FITC/PI 72 h Necrosis” value is on record as 9.4%.

In experiment [1], `CNc1ccc(S(=O)(=O)N(C)c2cc(OC)c(OC)c(OC)c2)cc1` [Compound 38] displayed an IC50 of 0.068 µM. Moreover, in the experiment on MCF7 cells (MCF7, 72 h), the “Annexin V-FITC/PI 72 h EA” value is listed as 29%; the “Annexin V-FITC/PI 72 h LA (late apoptosis)” value was found to be 5.4%; the “Annexin V-FITC/PI 72 h Live” value is 60% and 60.5%; the “Annexin V-FITC/PI 72 h Necrosis” value is given as 5.1%. Also, in the experiment with MCF7 cells, the “Annexin V-FITC/PI 6 Days EA” value was determined as 45.0%, the “Annexin V-FITC/PI 6 Days LA” value turned out to be 2.7%, the “Annexin V-FITC/PI 6 Days Live” value was found to be 52.0% and the “Annexin V-FITC/PI 6 Days Necrosis” value is 0.3%. In the experiment on SKOV3 cells, the “Annexin V-FITC/PI 72 h EA” value was 31% and 30.5%; the “Annexin V-FITC/PI 72 h LA (late apoptosis)” value turned out to be 5.4%; the “Annexin V-FITC/PI 72 h Live” value was 62.3%; the “Annexin V-FITC/PI 72 h Necrosis” value is recorded as 1.8%. Also, in the experiment on HeLa cells, the “Annexin V-FITC/PI 72 h EA” value came out at 1.1%; the “Annexin V-FITC/PI 72 h LA (late apoptosis, double-positives)” value was 87.6%; the “Annexin V-FITC/PI 72 h Necrosis” value was 10.6%.

The values are drawn from publication PMC7918738, “Microtubule Destabilizing Sulfonamides as an Alternative to Taxane-Based Chemotherapy” (International Journal of Molecular Sciences, 2021).
